{"source": "paper PMC8406801", "about": "“Naringenin Inhibits Platelet Activation and Arterial Thrombosis Through Inhibition of Phosphoinositide 3-Kinase and Cyclic Nucleotide Signaling” (Frontiers in Pharmacology, 2021)", "key": {"washed rat platelets": {"test_system": "washed rat platelets", "test": "ADP (10 μM)-induced aggregation of washed rat platelets", "format": "cell-based", "details": "H89+Naringenin (200 μM)+ADP (10 μM); Figure 7E"}, "[1]": {"test_system": "Akt Thr308 phosphorylation", "test": "Immunoblotting of phospho-Akt (Thr308) in ADP-stimulated washed platelets", "format": "cell-based, rat", "details": "ADP 10 μmol/L, single replicates; for p-Akt Thr308 / t-Akt: raw data", "protocol": "(§1) For in vitro platelet aggregation, aliquots of washed platelets were preincubated with vehicle or various concentrations of naringenin for 5 min and stimulated with ADP (10 μmol/L) under stirring at 37°C for 5 min. For ex vivo platelet aggregation, PRP was incubated at 37°C for 5 min and stimulated with ADP (5 μmol/L) under stirring at 37 °C. The platelet aggregation was terminated by adding ethylenediaminetetraacetic acid (EDTA; 10 mM). Total protein was prepared using RIPA lysis buffer and protein content was determined by bicinchoninic acid (BCA) protein assay kit. Equal amounts of platelet proteins (30 μg) were separated on 10% SDS polyacrylamide gel electrophoresis (SDS-PAGE) and then transferred to poly vinylidene difluoride (PVDF) membranes and subjected to western blot. Blots were blocked with TBS-Tween 20 containing 5% BSA and probed with primary antibodies diluted in blocking solution at 4°C overnight followed by incubation with the corresponding HRP secondary antibodies. The protein bands were visualized using enhanced chemiluminescence (ECL).\n(§2) FIGURE 4 Naringenin inhibits PI3K-mediated signaling in ADP-induced platelets. Washed rat platelets were preincubated without or with naringenin at 37°C for 5 min, and then stimulated with ADP (10 μmol/L) under stirring for 5 min. Platelet proteins were then extracted and analyzed by immunoblotting using PI3Kp110β antibody (A) and phospho-specific antibodies such as Akt^Ser473 (B), Akt^Thr308 (C), ERK1/2^Thr202/Tyr204 (D) and GSK3β^Ser9 (E). Total level of GAPDH was measured on each sample as a loading control. The blots shown are representative of three separate experiments. The relative protein expression levels were quantified by ImageJ 1.47v software. The level of relative protein expression obtained with vehicle control (0 μM) was taken as 1. R represents the level of relative protein expression in resting platelets. Data are expressed as means ± SD (n = 3). *p < 0.05, **p < 0.01, ***p < 0.001 compared with the vehicle control group."}, "PI3Kp110β": {"test_system": "PI3Kp110β", "test": "Immunoblotting of PI3Kp110β in ADP-stimulated washed platelets", "format": "cell-based, rat", "details": "ADP 10 μmol/L, single replicates; for PI3Kp110β / GAPDH: raw data", "protocol": "as §1, §2"}, "cAMP": {"test_system": "cAMP", "test": "Measurement of cAMP in washed platelets (ELISA)", "format": "cell-based, rat", "details": "single replicates", "protocol": "Washed platelets were preincubated with vehicle or various concentrations of naringenin in the presence of 2 mM CaCl2 at 37°C for 5 min and then stimulated with ADP (10 μM) for 5 min for platelet aggregation. The reaction was terminated by adding EDTA (10 mM). The platelets were boiled for 5 min at 100 °C followed by centrifugation at 13,000 × g for 5 min cAMP and cGMP levels in the supernatant were measured using cAMP or cGMP enzyme immunoassay kits (Cayman Chemicals, Ann Arbor, MI, United States).\nFIGURE 6 Naringenin elevates platelet cGMP levels and inhibits phosphodiesterase activity. The levels of cAMP (A) and cGMP (B) in washed platelets preincubated with vehicle or naringenin (100, 200, 400, and 800 μmol/L) were determined after stimulation with ADP (10 μmol/L) using ELISA kits. Similarly, the levels of cAMP (C) and cGMP (D) were determined in resting platelets incubated with naringenin (200, 400, and 800 μmol/L) or vehicle for 5 min. R represents the levels of cAMP or cGMP in resting platelets. Data are expressed as means ± SD (n = 4). *p < 0.05, ***p < 0.001 compared with the vehicle control group. The effects of naringenin on phosphodiesterase activity were measured by HPLC on the hydrolysis of cAMP (E) and cGMP (F). The level of phosphodiesterase activity obtained with vehicle control (0 μM) was taken as 100%. Data are expressed as means ± SD (n = 3). *p < 0.05, ***p < 0.001 compared with the vehicle control group."}, "[2]": {"test_system": "washed platelets on fibrinogen-coated coverslips", "test": "Platelet spreading on fibrinogen", "format": "cell-based, rat", "details": "for surface coverage, platelet spreading on fibrinogen: mean ± SD, n = 3, vehicle 30.37 ± 3.31%; for Area (%) of platelets spread on fibrinogen: single replicates", "protocol": "Washed platelets were incubated with vehicle or various concentrations of naringenin at 37°C for 10 min in the presence of 2 mM CaCl2 and allowed to spread on fibrinogen-coated coverslips for 45 min at 37°C ([Liu et al., 2016]). After washed three times with phosphate-buffered saline (PBS), adherent platelets were fixed with 4% paraformaldehyde, permeabilized with 0.1% Triton X-100 and stained with TRITC-conjugated phalloidin (1 μg/ml) in the dark at room temperature for 60 min. Adherent platelets were observed under an inverted fluorescence microscope (Nikon TE-2000S) and processed using Image J software."}}, "note": "Several values for one entry are separate records, joined by “and”; a condition that tells them apart may be missing. Identical values can stand only once."}
{"smiles": "O=C1C[C@@H](c2ccc(O)cc2)Oc2cc(O)cc(O)c21", "note": "[Naringenin]", "values": [{"measurement": "Aggregation (%)", "setting": "washed rat platelets", "value": "25.0% and 17.3% and 32.6% and 33.0% and 28.0% and 21.0%"}, {"measurement": "p-Akt Thr308 / t-Akt", "setting": "[1]; 100 μM", "value": "0.1089 and 0.0807 and 0.1359"}, {"measurement": "p-Akt Thr308 / t-Akt (Fold to ADP only)", "setting": "[1]; 100 μM", "value": "0.3238 Fold to ADP only and 0.2400 Fold to ADP only and 0.4039 Fold to ADP only"}, {"measurement": "p-Akt Thr308 / t-Akt", "setting": "[1]; 200 μM", "value": "0.0912 and 0.0481 and 0.0944"}, {"measurement": "p-Akt Thr308 / t-Akt (Fold to ADP only)", "setting": "[1]; 200 μM", "value": "0.2711 Fold to ADP only and 0.1429 Fold to ADP only and 0.2806 Fold to ADP only"}, {"measurement": "p-Akt Thr308 / t-Akt", "setting": "[1]; 400 μM", "value": "0.0712 and 0.0237 and 0.0830"}, {"measurement": "p-Akt Thr308 / t-Akt (Fold to ADP only)", "setting": "[1]; 400 μM", "value": "0.2116 Fold to ADP only and 0.0703 Fold to ADP only and 0.2468 Fold to ADP only"}, {"measurement": "p-Akt Thr308 / t-Akt", "setting": "[1]; 800 μM", "value": "0.0216 and 0.0199 and 0.0438"}, {"measurement": "p-Akt Thr308 / t-Akt (Fold to ADP only)", "setting": "[1]; 800 μM", "value": "0.0641 Fold to ADP only and 0.0591 Fold to ADP only and 0.1303 Fold to ADP only"}, {"measurement": "PI3Kp110β / GAPDH", "setting": "PI3Kp110β; 100 μM", "value": "0.2747 and 0.1851 and 0.4122"}, {"measurement": "PI3Kp110β / GAPDH (Fold to ADP only)", "setting": "PI3Kp110β; 100 μM", "value": "0.5384 Fold to ADP only and 0.3629 Fold to ADP only and 0.8080 Fold to ADP only"}, {"measurement": "PI3Kp110β / GAPDH", "setting": "PI3Kp110β; 200 μM", "value": "0.2677 and 0.1570 and 0.3210"}, {"measurement": "PI3Kp110β / GAPDH (Fold to ADP only)", "setting": "PI3Kp110β; 200 μM", "value": "0.5248 Fold to ADP only and 0.3077 Fold to ADP only and 0.6292 Fold to ADP only"}, {"measurement": "PI3Kp110β / GAPDH", "setting": "PI3Kp110β; 400 μM", "value": "0.1072 and 0.1459 and 0.2766"}, {"measurement": "PI3Kp110β / GAPDH (Fold to ADP only)", "setting": "PI3Kp110β; 400 μM", "value": "0.2102 Fold to ADP only and 0.2861 Fold to ADP only and 0.5422 Fold to ADP only"}, {"measurement": "PI3Kp110β / GAPDH", "setting": "PI3Kp110β; 800 μM", "value": "0.0408 and 0.0426 and 0.1130"}, {"measurement": "PI3Kp110β / GAPDH (Fold to ADP only)", "setting": "PI3Kp110β; 800 μM", "value": "0.0801 Fold to ADP only and 0.0835 Fold to ADP only and 0.2214 Fold to ADP only"}, {"measurement": "cAMP release", "setting": "cAMP; ADP 10 μmol/L-stimulated platelets, 100 μM", "value": "21.36 pmol/mL and 22.41 pmol/mL and 21.09 pmol/mL and 22.01 pmol/mL"}, {"measurement": "cAMP release", "setting": "cAMP; ADP 10 μmol/L-stimulated platelets, 200 μM", "value": "21.75 pmol/mL and 22.14 pmol/mL and 22.01 pmol/mL and 23.59 pmol/mL"}, {"measurement": "cAMP release", "setting": "cAMP; ADP 10 μmol/L-stimulated platelets, 400 μM", "value": "27.54 pmol/mL and 26.36 pmol/mL and 22.01 pmol/mL and 20.04 pmol/mL"}, {"measurement": "cAMP release", "setting": "cAMP; ADP 10 μmol/L-stimulated platelets, 800 μM", "value": "22.54 pmol/mL and 21.62 pmol/mL and 23.20 pmol/mL and 26.75 pmol/mL"}, {"measurement": "cAMP release", "setting": "cAMP; resting platelets, 200 μM, 5 min", "value": "19.51 pmol/mL and 23.07 pmol/mL and 21.88 pmol/mL and 25.17 pmol/mL"}, {"measurement": "cAMP release", "setting": "cAMP; resting platelets, 400 μM, 5 min", "value": "23.59 pmol/mL and 22.67 pmol/mL and 21.88 pmol/mL and 20.96 pmol/mL"}, {"measurement": "cAMP release", "setting": "cAMP; resting platelets, 800 μM, 5 min", "value": "19.64 pmol/mL and 23.59 pmol/mL and 22.67 pmol/mL and 22.14 pmol/mL"}, {"measurement": "surface coverage, platelet spreading on fibrinogen", "setting": "[2]; 100 μM", "value": "20.96 ± 5.08", "unit": "%"}, {"measurement": "Area (%) of platelets spread on fibrinogen", "setting": "[2]; 100 μM", "value": "25.76% and 15.64% and 21.47%"}, {"measurement": "surface coverage, platelet spreading on fibrinogen", "setting": "[2]; 200 μM", "value": "15.29 ± 1.87", "unit": "%"}, {"measurement": "Area (%) of platelets spread on fibrinogen", "setting": "[2]; 200 μM", "value": "16.88% and 15.75% and 13.23%"}, {"measurement": "surface coverage, platelet spreading on fibrinogen", "setting": "[2]; 400 μM", "value": "10.56 ± 0.79", "unit": "%"}, {"measurement": "Area (%) of platelets spread on fibrinogen", "setting": "[2]; 400 μM", "value": "9.69% and 11.23% and 10.75%"}, {"measurement": "surface coverage, platelet spreading on fibrinogen", "setting": "[2]; 800 μM", "value": "6.98 ± 2.74", "unit": "%"}, {"measurement": "Area (%) of platelets spread on fibrinogen", "setting": "[2]; 800 μM", "value": "4.62% and 6.33% and 9.98%"}]}
